Experimental findings from patent US10065990B2, “Cyclic peptide compound, and preparation method, pharmaceutical composition and use thereof” (HANGZHOU GUANYU BIO-MEDICAL CO., LTD, priority 2013, dated 2018) are described below.

Read-outs that look alike come from different tables or passages of the source.

The test system of assay [1] is Bel-7402 (human hepatoma cells). As to the kind of experiment: MTT cancer cell growth inhibition. Conditions: Homo sapiens, Bel-7402, 72 h, MTT, 72 hours incubation, Bel-7402 cells; read-out: GI50 Bel-7402. It is filed as cell-based. An outline of the steps:
(§1)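 Cells grown in DMEM or RPMI 1640 with 10% FBS were seeded at 1500/well and left overnight at 37° C., 5% CO2. Compounds at final 10^−5 to 10^−10 M were added in triplicate for 72 h. MTT was then added for 4 h, formazan dissolved in DMSO, and absorbance read at 570 nm to derive GI50.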

Assay [2] has as its system K562 (human leukemia cells). Briefly: MTT cancer cell growth inhibition. It counts as cell-based. The note with it: Homo sapiens, K562, 72 h, MTT, 72 hours incubation, K562 cells; read-out: GI50 K562. An outline of the steps:
as §1

Assay [3] concerns DU145 (human prostate cancer cells). Briefly: MTT cancer cell growth inhibition. It counts as cell-based. Conditions: Homo sapiens, DU-145, 72 h, MTT, 72 hours incubation, read-out: GI50 Du1. An outline of the steps:
as §1

Assay [4] concerns Hela (human cervical cancer cells). Briefly: MTT cancer cell growth inhibition. Conditions: Homo sapiens, HeLa, 72 h, MTT, 72 hours incubation, read-out: GI50 Hela. It counts as cell-based. Put shortly: as §1
The test system of assay [5] is MDA-MB-231 (breast cancer cells). Briefly: MTT cancer cell growth inhibition. It counts as cell-based. Conditions: Homo sapiens, MDA-MB-231, 72 h, read-out: GI50 MDA-MB-231, MTT, 72 hours incubation, MDA-MB-231 cells. Put shortly:
as §1

Assay [6] has as its system SGC-7901 (human gastric cancer cells). As to the kind of experiment: MTT cancer cell growth inhibition. It counts as cell-based. The note with it: Homo sapiens, SGC-7901, 72 h, MTT, 72 hours incubation, SGC-7901 cells; read-out: GI50 SGC-7901. An outline of the steps: as §1
Assay [7] deals with HT1080 (human fibrosarcoma cells). Briefly: MTT cancer cell growth inhibition. It is filed as cell-based. Conditions: Homo sapiens, HT-1080, 72 h, MTT, 72 hours incubation, read-out: GI50 HT1. Put shortly: as §1
Assay [8] concerns N-87 (human gastric cancer cells). As to the kind of experiment: MTT cancer cell growth inhibition. It is filed as cell-based. Conditions: Homo sapiens, 72 h, MTT, 72 hours incubation, N-87 cells; read-out: GI50 N-87. Put shortly:
as §1

The subject of assay [9] is Huh-7 (human hepatoma cells). Briefly: MTT cancer cell growth inhibition. It counts as cell-based. The note with it: Homo sapiens, Huh-7, 72 h, MTT, 72 hours incubation, Huh-7 cells; read-out: GI50 Huh-7. An outline of the steps:
as §1

Assay [10] concerns A549 (human lung cancer cells). As to the kind of experiment: MTT cancer cell growth inhibition. It is filed as cell-based. Conditions: Homo sapiens, A549, 72 h, MTT, 72 hours incubation, read-out: GI50 A54. Put shortly: as §1
Assay [11] deals with BGC-823 (human gastric cancer cells). As to the kind of experiment: MTT cancer cell growth inhibition. It is filed as cell-based. The note with it: Homo sapiens, BGC-823, 72 h, MTT, 72 hours incubation, read-out: GI50 BG. An outline of the steps: as §1
For assay [12], the system named is KBM-5 (human chronic myelogenous leukemia). Briefly: MTT cancer cell growth inhibition. It is filed as cell-based. Conditions: Homo sapiens, KBM5, 72 h, MTT, 72 hours incubation, KBM-5 cells; read-out: GI50 KBM-5. Put shortly: as §1
In assay [13] the test system is KBM5-T315I (human chronic myelogenous leukemia). Briefly: MTT cancer cell growth inhibition. It is filed as cell-based. Conditions: Homo sapiens, 72 h, MTT, 72 hours incubation, KBM5-T315I cells; read-out: GI50 KBM5-T315I. An outline of the steps:
as §1

Assay [14] deals with H1975 (non-small cell lung adenocarcinoma). As to the kind of experiment: MTT cancer cell growth inhibition. It counts as cell-based. The note with it: Homo sapiens, NCI-H1975, 72 h, MTT, 72 hours incubation, H1975 cells; read-out: GI50 H1975. An outline of the steps:
as §1

Assay [15] relates to MOLT-4 (human acute lymphoblastic leukemia cells). As to the kind of experiment: MTT cancer cell growth inhibition. It is filed as cell-based. Conditions: Homo sapiens, MOLT-4, 72 h, MTT, 72 hours incubation, read-out: GI50 Mol. An outline of the steps:
as §1

In assay [16] the test system is HCC827 (human non-small cell lung cancer cells). Briefly: MTT cancer cell growth inhibition. It is filed as cell-based. The note with it: Homo sapiens, HCC827, 72 h, MTT, 72 hours incubation, HCC827 cells; read-out: GI50 HCC827. Put shortly: as §1
Assay [17] deals with lncap (prostate cancer cells). Briefly: MTT cancer cell growth inhibition. It is filed as cell-based. Conditions: Homo sapiens, LNCaP, 72 h, MTT, 72 hours incubation, read-out: GI50 lnca. An outline of the steps: as §1
Assay [18] has as its system PANC-1 (Pac-1, human pancreatic cancer cells). Briefly: MTT cancer cell growth inhibition. It is filed as cell-based. The note with it: Homo sapiens, PANC-1, 72 h, MTT, 72 hours incubation, read-out: GI50 PAN. Put shortly:
as §1

Assay [19] concerns U937 (human leukemia cells). As to the kind of experiment: MTT cancer cell growth inhibition. It is filed as cell-based. The note with it: Homo sapiens, U-937, 72 h, MTT, 72 hours incubation, read-out: GI50 U93. An outline of the steps: as §1
Assay [20] has as its system MCF-7 (human breast cancer cells). As to the kind of experiment: MTT cancer cell growth inhibition. It counts as cell-based. Conditions: Homo sapiens, MCF7, 72 h, 72 hours incubation, read-out: GI50 MCF. Put shortly:
as §1

Assay [21] concerns the target T1, HDAC7 (Homo sapiens, UniProt Q8WUI4).
T1 sequence (Q8WUI4 1-952): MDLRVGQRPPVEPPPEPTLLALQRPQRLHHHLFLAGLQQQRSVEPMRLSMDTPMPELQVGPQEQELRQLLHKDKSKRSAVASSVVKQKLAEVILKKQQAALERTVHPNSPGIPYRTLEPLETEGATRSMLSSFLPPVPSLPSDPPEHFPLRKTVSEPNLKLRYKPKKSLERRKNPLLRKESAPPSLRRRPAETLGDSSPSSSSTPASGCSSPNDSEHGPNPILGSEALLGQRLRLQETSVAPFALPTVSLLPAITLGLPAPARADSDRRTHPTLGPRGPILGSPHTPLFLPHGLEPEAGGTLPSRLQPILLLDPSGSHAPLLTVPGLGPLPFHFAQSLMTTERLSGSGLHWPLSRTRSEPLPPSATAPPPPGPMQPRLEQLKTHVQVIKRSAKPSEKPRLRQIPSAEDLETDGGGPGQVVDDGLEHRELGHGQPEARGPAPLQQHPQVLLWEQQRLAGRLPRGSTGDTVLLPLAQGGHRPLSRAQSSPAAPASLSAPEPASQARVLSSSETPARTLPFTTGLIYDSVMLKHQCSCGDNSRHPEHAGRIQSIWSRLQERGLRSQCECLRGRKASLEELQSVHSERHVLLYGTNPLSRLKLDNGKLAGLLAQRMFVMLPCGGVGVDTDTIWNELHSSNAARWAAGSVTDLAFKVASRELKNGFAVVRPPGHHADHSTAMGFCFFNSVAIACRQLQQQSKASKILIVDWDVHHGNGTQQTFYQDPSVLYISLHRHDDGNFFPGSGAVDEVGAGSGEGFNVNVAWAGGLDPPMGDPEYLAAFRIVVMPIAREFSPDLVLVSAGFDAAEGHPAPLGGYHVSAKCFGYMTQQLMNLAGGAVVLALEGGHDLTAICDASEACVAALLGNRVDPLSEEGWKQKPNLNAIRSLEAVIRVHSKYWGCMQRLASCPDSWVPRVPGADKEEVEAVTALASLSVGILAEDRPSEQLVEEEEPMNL
As to the kind of experiment: HDAC biochemical activity measurement (fluorescent substrate deacetylation).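 Note: fluorogenic deacetylation assay using acetyl-lysine substrate at 20 µM, enzyme and compound incubated 30 min at 37 °C, then developer added, fluorescence read at 360/460 nm.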 Conditions: HDAC7; 37° C. 30 minutes.

As a reminder, the GI50 is the concentration at which growth is held to half of that of the control. For `C/C=C1\NC(=O)c2nc(ccc2F)CNC(=O)C[C@@H](/C=C/CCS)OC(=O)[C@H](Cc2ccccc2)NC1=O` [Compound 115], the GI50 in [1] came to 36 nM; in assay [2], 41 nM; in assay [3], 70 nM; in assay [4], 80 nM; in assay [5], 36 nM; in assay [6], 23 nM. In addition, the GI50 in assay [7] amounted to 80 nM; in assay [8], 45 nM; in assay [9] it was 99 nM; in [10] it was 40 nM; in [11], 60 nM; in assay [12] it was 53 nM. The 50% growth inhibitory concentration (GI50) in [13] turned out to be 28 nM; in assay [14], 23 nM; in assay [15], 80 nM; in [16], 41 nM; in assay [17], 80 nM; in assay [18], 60 nM. Also, the values for the GI50 in [19] and in assay [20] were 40 nM and 70 nM, respectively. Further, in [21], the “IC50 HDAC7” value is recorded as “no activity”.
With `C/C=C1\NC(=O)c2ccc(F)c(n2)CNC(=O)C[C@@H](/C=C/CCSC(=O)CCCCCCC)OC(=O)[C@H](CC)NC1=O` [Example 56], the GI50 in assay [1] was found to be 93 nM; in assay [2], 43 nM; in assay [3], 40 nM; in assay [4], 80 nM; in [5], 37 nM; in assay [6], 53 nM. In addition, the GI50 in assay [7] was determined as 90 nM; in [8] it was 42 nM; in [9], 37 nM; in assay [10] it was 50 nM; in [11], 40 nM; in [12], 81 nM. Further, the GI50 in assay [13] was 69 nM; in assay [14] it was 53 nM; in assay [15], 30 nM; in [16] it was 93 nM; in assay [17] it was 30 nM; in assay [18], 90 nM. Also, the GI50 amounted to 50 nM in [19] and 60 nM in assay [20]. Moreover, the “IC50 HDAC7” value in [21] was “no activity”.
For `C/C=C1\NC(=O)c2nc(ccc2SC)CNC(=O)C[C@@H](/C=C/CCSC(C)=O)OC(=O)[C@H](CCCCNC(=O)OCC2c3ccccc3-c3ccccc32)NC1=O` [Compound 195], the 50% growth inhibitory concentration (GI50) in [1] came out at 54 nM; in assay [2], 81 nM; in assay [3] (DU145 cells), 50 nM; in assay [4] (Hela cells), 60 nM; in assay [5] it was 91 nM; in assay [6], 14 nM. The GI50 in assay [7] (HT1080 cells) was determined as 30 nM; in assay [8], 42 nM; in [9], 45 nM; in assay [10] (A549 cells), 90 nM; in assay [11] (BGC-823 cells), 20 nM; in [12], 26 nM. Moreover, the GI50 in assay [13] was 43 nM; in [14] it was 38 nM; in [15] (MOLT-4 cells), 20 nM; in assay [16] it was 79 nM; in assay [17] (lncap cells) it was 90 nM; in assay [18] (PANC-1 cells), 30 nM. Further, the GI50 in assay [19] (U937 cells) was 50 nM; in assay [20] (MCF-7 cells), 30 nM. For the same compound, the “IC50 HDAC7” value in assay [21] is “no activity”.
With `C/C=C1\NC(=O)c2ccc(F)c(n2)CNC(=O)C[C@@H](/C=C/CCSC(C)=O)OC(=O)[C@@H](C)NC1=O` [Compound 102], the GI50 in assay [1] was 11 nM; in assay [2], 28 nM; in [3] it was 20 nM; in [4], 30 nM; in assay [5], 26 nM; in assay [6] it was 31 nM. The concentration for 50% growth inhibition (GI50) was determined as 50 nM in assay [7]; 46 nM in assay [8]; 73 nM in [9]; 50 nM in assay [10]; 30 nM in assay [11]; 67 nM in [12]. In addition, the GI50 came to 71 nM in [13]; 35 nM in assay [14]; 30 nM in [15]; 58 nM in assay [16]; 30 nM in assay [17]; 50 nM in assay [18]. In addition, the figures for the concentration for 50% growth inhibition (GI50) in [19] and in assay [20] were 40 nM and 30 nM, respectively. In assay [21], the “IC50 HDAC7” value is on record as “no activity”.
